Where a name gives a salt, the structure may show the parent alone. Read-outs that look alike come from different tables or passages of the source.
Legend:
[1] = test system: Botrytis cinerea; conditions: in vivo
[2] = test system: Phytophthora infestans; assay type: in vivo; conditions: foliar application at 1200 ppm or root uptake from treated soil containing 20 ppm
[3] = test system: rice blast, Piricularia oryzae; assay type: in vivo; conditions: foliar application, 1200 ppm
[4] = test system: wheat leaf rust, Puccinia recondita; assay: whole plant or invertebrate; assay type: in vivo; conditions: foliar; for pest or weed control at 280.212 g/ha: read-out: % Control (without rain), foliar, 0.25 lb.; for pest or weed control at 1120.85 g/ha: read-out: % Control (without rain), foliar, 1 lb.
[5] = test system: wheat leaf rust, Puccinia recondita; assay: whole plant or invertebrate; assay type: in vivo; conditions: foliar; for pest or weed control at 280.212 g/ha: read-out: % Control (with 1" of rain), foliar, 0.25 lb., 1" of rain; for pest or weed control at 1120.85 g/ha: read-out: % Control (with 1" of rain), foliar, 1 lb., 1" of rain
[6] = test system: leaf rust on spring wheat; assay: Systemic field test, leaf rust on spring wheat; assay type: in vivo; conditions: 36 days after treatment
[7] = test system: wheat leaf rust, Puccinia recondita; assay type: in vivo
[8] = test system: leaf rust on winter wheat; assay: Systemic field test, leaf rust on winter wheat; assay type: in vivo; conditions: 46 days after application, untreated 1109
[9] = test system: wheat leaf rust, Puccinia recondita; assay: Foliar systemic activity on leaf rust; assay type: in vivo
Description: Another type of systemic test was run in which pots of approximately 5 inch high wheat plants were sprayed with varying concentrations of the test compound. Thirty-six hours later they were sprayed six minutes in a rain machine which amounted to about one inch of normal rainfall. The plants were then placed in a greenhouse for 7 days and then inoculated with a spore suspension of wheat leaf rust, Puccinia recondita. About 7 days later lesion counts were made on ten leaves representing the sprayed leaves and new growth from each replicate and compared with similar pots of wheat plants which were untreated with a chemical and the percent disease control determined. Disease control on the new growth is a measure of systemic activity. The commercial product known by the trademarked name Plantvax, which is 2,3-dihydro-5-carboxanilido-6-methyl-1,4-oxathiin-4,4-dioxide, was used as a standard.

Compound	pest or weed control at 280.212 g/ha [4] [%]	pest or weed control at 1120.85 g/ha [4] [%]	pest or weed control at 280.212 g/ha [5] [%]	pest or weed control at 1120.85 g/ha [5] [%]	% Systemic Wheat Leaf Rust Control ([7]; 2.5 ppm in soil) [%]	% Systemic Wheat Leaf Rust Control ([7]; 5 ppm in soil) [%]	% Systemic Wheat Leaf Rust Control ([7]; 10 ppm in soil) [%]	% Rust Control, New growth ([9]; 1/2 lb./100 gal.) [%]	% Rust Control, Sprayed Leaf ([9]; 1/2 lb./100 gal.) [%]	% Rust Control, New growth ([9]; 1/6 lb./100 gal.) [%]	% Rust Control, Sprayed Leaf ([9]; 1/6 lb./100 gal.) [%]	% Rust Control, New growth ([9]; 1/12 lb./100 gal.) [%]	% Rust Control, Sprayed Leaf ([9]; 1/12 lb./100 gal.) [%]	other results
4-(2-ethylhexyl)-1,2,4-triazole [Example 11]														control of Botrytis cinerea on broad bean [1]: 50-85%
CCCCCCCCn1cnnc1 [Example 10, 4-n-octyl-1,2,4-triazole]														control of Phytophthora infestans [2]: good control
CCCCCCCCCCCCn1cnnc1 [Example 13, 4-n-dodecyl-1,2,4-triazole]	20	60	0	30										control of rice blast, Piricularia oryzae [3]: 95-100%
OCCCn1cnnc1 [Example 18, 4-(3-hydroxypropyl)-1,2,4-triazole]	0	0	0	0										control of Phytophthora infestans [2]: good control
CCOCCn1cnnc1 [Example 24, 4-(2-ethoxyethyl)-1,2,4-triazole]	80	95	50	95										control of Phytophthora infestans [2]: good control
c1ccc(OCCn2cnnc2)cc1 [Example 25, 4-(2-phenoxyethyl)-1,2,4-triazole]	0	0	0	0										control of Phytophthora infestans [2]: good control
CCOCCCn1cnnc1 [Example 47]	80	80	30	55										control of Phytophthora infestans [2]: good control
CCCCn1cnnc1S [Example 76, 3-mercapto-4-n-butyl-1,2,4-triazole]	100	100	100	100	83	97	100	90	97	77	88	75	80	% Leaves infected ([6]; 0.5 lbs./acre): 23%; % Leaves infected ([6]; 1 lbs./acre): 10%; % Leaves infected ([6]; 2 lbs./acre): 4%; No. of lesions/800 leaves ([8]; 0.5 lbs./acre): 453 lesions/800 leaves; No. of lesions/800 leaves ([8]; 1 lbs./acre): 239 lesions/800 leaves; No. of lesions/800 leaves ([8]; 2 lbs./acre): 89 lesions/800 leaves
CCCCn1c(S)nnc1C(=O)O [Example 94, 3-mercapto-4-n-butyl-5-carboxy-1,2,4-triazole]	100	100	82	83	95	99	100	86	99	73	91	61	71	% Leaves infected ([6]; 0.5 lbs./acre): 35%; % Leaves infected ([6]; 1 lbs./acre): 17%; % Leaves infected ([6]; 2 lbs./acre): 7%
CCCCn1c(S)nnc1C(=O)OCC [Example 97]	100	100	100	100	93	95	100	54	86	75	73	67	81	
CCCCn1c(SC(=O)NC)nnc1C(=O)O [Example 99, 3-methylcarbamoylmercapto-4-n-butyl 5-carboxy-1,2,4-triazole]	99	99	100	100	96	99	100	82	69	69	74	56	81	
CCCCn1c(SC(=O)NC)nnc1C(=O)O [Example 100, triethanolamine salt of 3 methyl-carbamoylmercapto-4-n-butyl-5-carboxy-1,2,4-triazole]					89	99	99	79	79	63	79	54	57	% Control (without rain) ([4]; 0.25 lb.): 100%; % Control (without rain) ([4]; 1 lb.): 100%; % Control (with 1" of rain) ([5]; 0.25 lb.): 100%; % Control (with 1" of rain) ([5]; 1 lb.): 100%
CCCCn1cnnc1SCCOCC [Example 107, 3-(2-ethoxyethylmercapto)-4-n-butyl-1,2,4-triazole]	100	100	100	100	52	85	89	61	73	23	27	17	25	
CCCCn1cnnc1SCC(N)=O [Example 111, 3-carbamoylmethylmercapto-4-n butyl-1,2,4-triazole]	100	100	93	100	76	91	92	88	88	59	51	38	49	
CCCCn1cnnc1SC(=O)NC [Example 114, 3-methylcarbamoylmercapto-4-n-butyl-1,2,4-triazole]	100	100	100	100	96	100	100	98	96	79	83	67	68	
CCCCn1cnnc1Sc1ccc([N+](=O)[O-])cc1[N+](=O)[O-] [Example 127, 3-(2,4-dinitrophenylmercapto)-4-n-butyl-1,2,4-triazole]	100	100		100	67	94	100	81	98	69	93	57	81	
CC1=C(C(=O)Nc2ccccc2)S(=O)(=O)CCO1 [Plantvax, 2,3-dihydro-5-carboxanilido-6-methyl-1,4-oxathiin-4,4-dioxide, reference compound]								38	49	32	37		3	% Leaves infected ([6]; 0.5 lbs./acre): 79%; % Leaves infected ([6]; 1 lbs./acre): 78%; % Leaves infected ([6]; 2 lbs./acre): 75%; No. of lesions/800 leaves ([8]; 0.5 lbs./acre): 1113 lesions/800 leaves; No. of lesions/800 leaves ([8]; 1 lbs./acre): 1017 lesions/800 leaves; No. of lesions/800 leaves ([8]; 2 lbs./acre): 690 lesions/800 leaves

Source: US4120864A, “1,2,4-4H-triazole derivatives” (Rohm and Haas Company, priority 1972, dated 1978)
